Assay results reported in ChEMBL document CHEMBL1201862, “PubChem BioAssay data set” (2004).
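In this assay, cells in 96-well plates receive the compound at five concentrations for 48 hours. Endpoints are linearly interpolated between the surrounding concentrations. GI50 is the concentration that inhibits growth by half.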 Calls of active or inactive are those of the source. Rule as the data show it: active = GI50 up to about 1.1 µM and inactive = higher.

Assays:
Assay in all cases: inhibition of tumour cell growth, NCI panel, 48 h
K562 = system: K562
TK-10 = system: TK-10
SF-295 = system: SF-295
UACC-257 = system: UACC-257
MCF7 = system: MCF7
UO-31 = system: UO-31
SR = system: SR
SK-OV-3 = system: SK-OV-3
ACHN = system: ACHN
NCI-H522 = system: NCI-H522
HCC 2998 = system: HCC 2998
SN12C = system: SN12C
A549 = system: A549
MDA-MB-435 = system: MDA-MB-435
PC-3 = system: PC-3
MDA-MB-231 = system: MDA-MB-231
SK-MEL-28 = system: SK-MEL-28
KM12 = system: KM12
M14 = system: M14
SW-620 = system: SW-620

Measured: GI50

CC(=O)OCC1(C)C(O)CCC2(C)C1CCC1CC3CC12CCC3(O)CO (stereo not given)
inactive: K562 > 100 µM | TK-10 > 100 µM | SF-295 10.8 µM | UACC-257 > 100 µM | MCF7 > 100 µM | UO-31 25 µM | SR 4.42 µM | SK-OV-3 > 100 µM | ACHN 4.46 µM | NCI-H522 > 26.6 µM | HCC 2998 20.8 µM | SN12C > 100 µM | A549 55.1 µM | MDA-MB-435 > 100 µM | PC-3 > 91 µM | MDA-MB-231 > 100 µM | SK-MEL-28 > 100 µM | KM12 > 100 µM | M14 > 100 µM | SW-620 > 95.7 µM

CS(=O)(=O)c1ccc(C2=C(c3ccccc3)C(=O)OC2)cc1 [ROFECOXIB]
inactive: K562 > 100 µM | TK-10 > 100 µM | SF-295 > 100 µM | UACC-257 > 100 µM | MCF7 > 100 µM | UO-31 > 100 µM | SR > 100 µM | SK-OV-3 > 100 µM | ACHN > 100 µM | NCI-H522 > 100 µM | HCC 2998 > 100 µM | SN12C > 100 µM | A549 > 100 µM | MDA-MB-435 > 100 µM | PC-3 > 100 µM | MDA-MB-231 > 100 µM | SK-MEL-28 > 100 µM | KM12 > 100 µM | M14 > 100 µM | SW-620 > 100 µM

COC(=O)/C=C(/C(=O)OC)c1c(C)cc2c(C)cc(C)cc(C)c1-2
inactive: K562 4.45 µM | TK-10 27.1 µM | SF-295 7.24 µM | UACC-257 19.3 µM | MCF7 4.1 µM | UO-31 23 µM | SR 4.19 µM | SK-OV-3 21.5 µM | ACHN 20.4 µM | NCI-H522 7.48 µM | HCC 2998 16.4 µM | SN12C 14.9 µM | A549 14.9 µM | MDA-MB-435 2.77 µM | PC-3 19 µM | MDA-MB-231 4.89 µM | SK-MEL-28 24.3 µM | KM12 5.11 µM | M14 8.28 µM | SW-620 7.18 µM

COC(=O)N/N=C(\C)C(CN1CCOCC1)C(c1ccccc1)c1cc2ccccc2oc1=O (stereo not given)
inactive: K562 70.5 µM | TK-10 > 100 µM | SF-295 > 100 µM | UACC-257 82.4 µM | MCF7 > 100 µM | UO-31 > 100 µM | SR 23.9 µM | SK-OV-3 > 100 µM | ACHN > 100 µM | NCI-H522 > 100 µM | HCC 2998 > 100 µM | SN12C > 100 µM | A549 > 100 µM | MDA-MB-435 > 100 µM | PC-3 > 100 µM | MDA-MB-231 > 100 µM | SK-MEL-28 > 100 µM | KM12 > 100 µM | M14 > 100 µM | SW-620 > 100 µM
